Blank lines part the entries; values can stand above or below the molecule they belong to.
How the values were obtained:
[1] = Description: After each addition of solvent, the system was shaken gently for 10 minutes at 50° C. and then allowed to stand at room temperature for 5 min before the addition of a new aliquot of solvent. After the assessment was completed, any suspensions obtained were matured and clear solutions were cooled at 5° C.
[2] = Storage of solid forms at 40° C./75% RH or 25° C./97% RH; format: physicochemical; details: for 7 days storage @ 40° C./75% RH: appearance: table prints 40° C./5% RH, hydrochloride salt
[3] = Stability studies (accelerated, ICH); format: physicochemical
Description: The compounds were assayed according to appearance, purity, related Substances, chiral purity, moisture, DSC, and XRPD

[4] = Forced degradation study; format: physicochemical
[5] = Solubility and metastable limit curves (clear point / cloud point, Crystal16); format: physicochemical
Description: The samples were then cooled from 70 back to −8° C. at the same rate. The clear point upon heating (at 100% transmission) and the cloud point upon re-cooling (<100% transmission) were recorded using the Crystal16 instrument and the data is shown in Table 17. XRPD analysis was performed on all solids obtained post cooling.

[6] = Storage of solid forms at 40° C./75% RH or 25° C./97% RH; format: physicochemical; details: for 7 days storage @ 40° C./75% RH: resulting form (XRPD): 7 days / one week, hydrochloride salt
Description: All retrieved solids from the crystallisation attempts were stored at 40° C. and 75% RH.

[7] = Aqueous solubility of Form 1 of Compound 2; format: physicochemical
[8] = Organic (qualitative) solubility of Form 1 of Compound 2; format: physicochemical
[9] = Gravimetric Vapor Sorption (GVS); format: physicochemical; details: 0 to 90% RH; methanesulfonate salt
From the text: Gravimetric Vapor Sorption (GVS) isotherms were obtained using an SMS DVS Intrinsic moisture sorption analyser, controlled by DVS Intrinsic Control software v1.0.1.2 (or v 1.0.1.3), over a range of 0 to 90% relative humidity (RH).

[10] = Form conversion on heating (thermal analysis / XRPD); format: physicochemical; details: heated above 150° C.
Description: DSC data were collected on a TA Instruments Q2000 equipped with a 50 position auto-sampler. The calibration for thermal capacity was carried out using sapphire and the calibration for energy and temperature was carried out using certified indium. Typically 0.5-3 mg of each sample, in a pin-holed aluminium pan, was heated at 10° C./min from 25° C. to 300° C. A purge of dry nitrogen at 50 ml/min was maintained over the sample.

- Solubility [1]: 200-100
- 7 days storage @ 40° C./75% RH: appearance [2]: Glassy
Structure (SMILES): Cl.NCc1cc(Oc2cccc(C(=O)N3C[C@@H](O)[C@H](F)C3)c2)nc(C(F)(F)F)c1 [Amorphous Compound 1, (R,R)-trans-(3-((4-(aminomethyl)-6-(trifluoromethyl)pyridin-2-yl)oxy)phenyl)(3-fluoro-4-hydroxypyrrolidin-1-yl)methanone, hydrochloride salt]

Structure (SMILES): Cl.NCc1cc(Oc2cccc(C(=O)N3C[C@@H](O)[C@H](F)C3)c2)nc(C(F)(F)F)c1 [Compound 1, (R,R)-trans-(3-((4-(aminomethyl)-6-(trifluoromethyl)pyridin-2-yl)oxy)phenyl)(3-fluoro-4-hydroxypyrrolidin-1-yl)methanone, hydrochloride salt]
- 3 month accelerated stability ([3]; 40° C./75% RH, 3 month): no significant changes in purity or absorption of moisture

- ICH stability, 1 month data ([3]; long-term (25° C./60%) and accelerated (40° C./75%) conditions of 1-year and 2-year ICH studies): within limits for all attributes tested
- forced degradation, solid state, heat ([4]; solid, 100° C., 24 hours): stable
- forced degradation, solid state, light ([4]; solid, max 365 nm, 24 hours): stable
- forced degradation, solution state, heat ([4]; solution, 50° C. for 24 hours): stable
- Clear Point Temperature ([5]; 5 mg in 1 mL IPA:water 95:5): 6.9 °C
- Clear Point Temperature ([5]; 10 mg in 1 mL IPA:water 95:5): 20.3 °C
- Clear Point Temperature ([5]; 20 mg in 1 mL IPA:water 95:5): 37.2 °C
- Clear Point Temperature ([5]; 30 mg in 1 mL IPA:water 95:5): 48.5 °C
- Cloud Point Temperature ([5]; 30 mg in 1 mL IPA:water 95:5): −7.8 °C
- Clear Point Temperature ([5]; 40 mg in 1 mL IPA:water 95:5): 55.8 °C
- Cloud Point Temperature ([5]; 40 mg in 1 mL IPA:water 95:5): −1.8 °C
- Clear Point Temperature ([5]; 60 mg in 1 mL IPA:water 95:5): 64 °C
- Cloud Point Temperature ([5]; 60 mg in 1 mL IPA:water 95:5): 14.5 °C
- Clear Point Temperature ([5]; 70 mg in 1 mL IPA:water 95:5): 68.6 °C
- Cloud Point Temperature ([5]; 70 mg in 1 mL IPA:water 95:5): 24.7 °C
Structure (SMILES): CS(=O)(=O)O.NCc1cc(Oc2cccc(C(=O)N3C[C@@H](O)[C@H](F)C3)c2)nc(C(F)(F)F)c1 [Compound 2, (R,R)-trans-(3-((4-(aminomethyl)-6-(trifluoromethyl)pyridin-2-yl)oxy)phenyl)(3-fluoro-4-hydroxypyrrolidin-1-yl)methanone, methanesulfonate salt]

- hygroscopicity [6]: hygroscopic solid
- 7 days storage @ 40° C./75% RH: resulting form (XRPD) [6]: transforms to Form 2
- behaviour on storage at 40° C. and 75% RH ([6]; after 24 hours): deliquescing
- 7 days storage @ 40° C./75% RH: appearance [2]: Waxy/glassy
Structure (SMILES): Cl.NCc1cc(Oc2cccc(C(=O)N3C[C@@H](O)[C@H](F)C3)c2)nc(C(F)(F)F)c1 [Form 1 of Compound 1, (R,R)-trans-(3-((4-(aminomethyl)-6-(trifluoromethyl)pyridin-2-yl)oxy)phenyl)(3-fluoro-4-hydroxypyrrolidin-1-yl)methanone, hydrochloride salt]

- Aqueous Solubility ([7]; pH 2): >107 mg/mL
- Aqueous Solubility ([7]; pH 7.4): >107 mg/mL
- Aqueous Solubility ([7]; pH 10): >85 mg/mL
- Organic Solubility: Qualitative Solubility ([8]; isopropyl acetate, isopropanol, methyl-ethyl ketone, acetone, ethanol, methyl-t-butyl ether, 1,4 dioxane, toluene, tetrahydrofuran, dichloromethane, acetonitrile): ≤10 mg/mL
- Organic Solubility: Qualitative Solubility ([8]; water, dimethyl sulfoxide): >200 mg/mL
- XRPD after the GVS analysis [9]: Unchanged
- Polymorph stability on storage ([6]; 7 days at 40° C./75% RH and 25° C./97% RH): stable for 7 days
Structure (SMILES): CS(=O)(=O)O.NCc1cc(Oc2cccc(C(=O)N3C[C@@H](O)[C@H](F)C3)c2)nc(C(F)(F)F)c1 [Form 1 of Compound 2, (R,R)-trans-(3-((4-(aminomethyl)-6-(trifluoromethyl)pyridin-2-yl)oxy)phenyl)(3-fluoro-4-hydroxypyrrolidin-1-yl)methanone, methanesulfonate salt]

- behaviour on storage conditions ([6]; 1 week, 40° C. and 75% RH): remained unchanged
- 7 days storage @ 40° C./75% RH: resulting form (XRPD) [6]: Form 2
- stability over time ([6]; thermally stable, over time): converts over time to a waxy solid
- 7 days storage @ 40° C./75% RH: appearance [2]: Waxy/glassy
Structure (SMILES): Cl.NCc1cc(Oc2cccc(C(=O)N3C[C@@H](O)[C@H](F)C3)c2)nc(C(F)(F)F)c1 [Form 2 of Compound 1, (R,R)-trans-(3-((4-(aminomethyl)-6-(trifluoromethyl)pyridin-2-yl)oxy)phenyl)(3-fluoro-4-hydroxypyrrolidin-1-yl)methanone, hydrochloride salt]

- form change after GVS analysis and storage ([6]; after GVS analysis and 7 days at 40° C./75% RH): phase transformation towards Form 1
- form change in humidity ([6]; humidity): converts to Form 1
- form change on heating [10]: can transform to Form 1
- form change after storage ([2]; 7 days at 25° C./97% RH): change also occurs
Structure (SMILES): CS(=O)(=O)O.NCc1cc(Oc2cccc(C(=O)N3C[C@@H](O)[C@H](F)C3)c2)nc(C(F)(F)F)c1 [Form 2 of Compound 2, (R,R)-trans-(3-((4-(aminomethyl)-6-(trifluoromethyl)pyridin-2-yl)oxy)phenyl)(3-fluoro-4-hydroxypyrrolidin-1-yl)methanone, methanesulfonate salt]

From US11459309B2, “Crystalline forms of a lysyl oxidase-like 2 inhibitor and methods of making” (PHARMAKEA, INC., priority 2016, dated 2022)
